Reference: patent publication US12630520B2, “Left-handed bicyclic morpholine and salt thereof, preparation method therefor, pharmaceutical composition, and use” (Institute of Materia Medica, Chinese Academy of Medical …, priority 2019, dated 2026)

Key:
HepG2 cells [1] = assay: 4-Acetamidophenol (APAP)-induced in vitro hepatocyte injury, MTT and LDH; format: cell-based, human; conditions: HepG2, 10 μM, 8 mM APAP
Procedure: Human liver cancer HepG2 cell well retained the characteristics of normal human hepatocytes, and they were grown in a DMEM medium containing 10% of fetal calf cerium (containing 100 U/mL of penicillin and 100 μg/mL of streptomycin) at the culturing conditions: 37° C., 5% of CO2 and a saturated humidity. A solution containing 0.25% of trypsin and 0.02% of EDTA was used for digestions and passages.
(§1) A MTT method was adopted. The HepG2 cells were inoculated in a 96-well cell culture plate, and after 24 hour cultures, the (+)IMM-H014, the (−)IMM-H014 and the (±)IMM-H014 were added in a non-toxic concentration whilst the 4-acetamidophenol (APAP, a final concentration of 8 mM) was added thereto. A Bicyclol positive control group, a solvent control group and a model group were set for the experiment. The culture was continued for 24 h. 100 μL of the culture solution was taken and centrifuged, and a full-automatic biochemical analyzer in a LDH detection kit was utilized to detect the LDH level therein. The remaining culture solution was discarded, and to each well, 100 μL of a MTT (0.5 mg/mL) solution was added to continue the culture for 4 hours. The MTT solution was discarded, and to each well, 150 μL of DMSO was added. The mixture was oscillated by a mixing oscillator, and the absorbance value was measured at a wavelength of 570 nm in a microplate reader. Cell survival rate (%)=(OD mean of administration group/OD mean of solvent control group)×100%.
(§2) The data were presented as a number mean±standard deviation (x±SD).

HepG2 cells [2] = assay: Carbon tetrachloride (CCl4)-induced in vitro hepatocyte injury, MTT; format: cell-based, human; conditions: HepG2, 10 μM
Procedure: Human liver cancer HepG2 cells well retained the characteristics of normal human hepatocytes, and they were grown in a DMEM medium containing 10% of fetal calf cerium (containing 100 U/mL of penicillin and 100 μg/mL of streptomycin) at the culturing conditions: 37° C., 5% of CO2 and a saturated humidity. A solution containing 0.25% of trypsin and 0.02% of EDTA was used for digestions and passages.
as §1, with “carbon tetrachloride (CCl4,” for “4-acetamidophenol (APAP,”, “0.6%)” for “8 mM)”, “They acted on the cells continuously” for “The culture was continued”, “h.” for “h. 100 μL of the culture solution was taken and centrifuged, and a full-automatic biochemical analyzer in a LDH detection kit was utilized to detect the LDH level therein.”, “The” for “The remaining”, “to” for “to continue the”
as §2

COC(=O)c1cc(OC)c2c(c1-c1c(CO)cc(OC)c3c1OCO3)OCO2 [Bicyclol]
Survival rates (%) (HepG2 cells [1]; 24 h, MTT): 50.67% | OD Mean ± SD (HepG2 cells [1]; 24 h, MTT, 570 nm): 0.454 ± 0.092 | Cell survival rate increase (%) (HepG2 cells [1]; versus model group): 32.2% | Survival rates (%) (HepG2 cells [2]; 0.6% CCl4, 24 h, MTT): 89.47% | OD Mean ± SD (HepG2 cells [2]; 0.6% CCl4, 24 h, MTT, 570 nm): 0.819 ± 0.099 | Cell survival rate increase (%) (HepG2 cells [2]; 0.6% CCl4, versus model group): 15.36%
